Experiments:
[1] = system: TGF-β activation (phosphorylated SMAD3); test: TGF-β activation inhibition test (inhibition of SMAD3 phosphorylation in TFK-1 cells); type: cell-based; settings: 48 h, fibronectin-coated plate, cultured 2 days, read-out: IC50 (rate of inhibition of phosphorylated SMAD3)
Description: In Test Example 3, the inhibition of TGF-β activation by a compound was detected with the inhibition of SMAD3 phosphorylation as an index. In Test Example 3, the same reagents as in Test Example 1 were used unless otherwise specified.
Human fibronectin was prepared at 14 μg/mL with PBS and then dispensed at 50 μL/well to a 96-well plate. The plate was left standing at room temperature for 1 hour or longer, followed by the removal of the fibronectin solution. The plate was washed with PBS and used as a coated plate.
A test compound dissolved in DMSO was added to RPMI medium 1640 (manufactured by Thermo Fisher Scientific, Inc., 11875) containing 1% FBS and 1% penicillin/streptomycin/amphotericin B to prepare a medium containing the test compound having a concentration of two times the final concentration. This medium was added at 100 μL/well to the coated plate. TFK-1 cells (Cell Resource Center for Biomedical Research, Institute of Development, Aging and Cancer, Tohoku University) cultured in RPMI medium 1640 containing 10% FBS and 1% penicillin/streptomycin/amphotericin B were suspended in RPMI medium 1640 containing 1% FBS and 1% penicillin/streptomycin/amphotericin B to prepare a cell suspension of 1×10^6 cells/mL. The prepared cell suspension was further added at 100 μL/well and cultured for 2 days in a 5% CO2 incubator (37° C.).
Phosphorylated SMAD3 in the cells thus cultured for 2 days was measured using Phospho-SMAD3 (Ser423/425) cellular kit (manufactured by cisbio, 63ADK025), and a DeltaF value was calculated according to the calculation expression of the kit. Inhibition when 10 μM LY364947 (FUJIFILM Wako Pure Chemical Corp., 123-05981) was added instead of the test compound was defined as 100% inhibition, and inhibition when DMSO was added instead was defined as 0% inhibition. The rate of inhibition of phosphorylated SMAD3 by the test compound was calculated according to the following expression.
Rate of inhibition of phosphorylated SMAD3 (%)=[1−{(DeltaF value in the case of adding the test compound)−(DeltaF value in the case of adding 10 μM LY364947)}/{(DeltaF value in the case of adding DMSO)−(DeltaF value in the case of adding 10 μM LY364947)}]×100
An IC50 value was calculated from the rate of inhibition of phosphorylated SMAD3 by the test compound. A: IC50<10 nM, B: 10 nM≤IC50<50 nM, C: 50 nM≤IC50<100 nM, or D: IC50≥100 nM.

[2] = Transcellular transport test using Caco2 cell; type: in vitro ADME; settings: human, Caco-2; Caco2 monolayer, A-to-B, 10 μM compound, pH 7.4, 90 minutes
Description: Caco2 cells (purchased from ATCC) were cultured in DMEM medium (Thermo Fisher Scientific, Inc., 11965) containing 10% FBS (Thermo Fisher Scientific, Inc., 10082) and 1% penicillin/streptomycin/amphotericin B (Thermo Fisher Scientific, Inc., 15240). A transcellular transport test was carried out in accordance with MultiScreen Caco2 Drug Transport Assembly in a 96-well system (Application Note AN1727EN, MultiScreen Caco-2 Assay System, Merck) by partially modifying it. The Caco2 cells were inoculated at a cell density of 4×10^4 cells/well onto a micropore polycarbonate insert of a 96-well plate (Merck, Millcell-96 culture insert plate 0.4 μm pore size, well membrane area=0.11 cm^2, PSHT004S5) and cultured for 20 to 22 days, and the resulting monolayer was used in the transcellular transport test. The medium of the inoculated cells was replaced with a fresh one every 3 to 4 days.
Apical-to-basolateral (A-to-B) transport in the Caco2 cell monolayer membrane was performed by using HBSS (Thermo Fisher Scientific, Inc., 14025) medium (pH=7.4) containing 20 mM HEPES (Thermo Fisher Scientific, Inc., 15630), and adding HEPES-containing HBSS medium containing 10 μM compound (a 10 mM solution of the compound in DMSO was added at a 1000-fold dilution; final DMSO concentration: 0.1%) at 75 μL/well to the apical side and HEPES-containing HBSS medium supplemented with no compound at 250 μL/well to the basolateral side, followed by culture at 37° C. for 90 minutes. After culture, a 100 μL aliquot was collected from the basolateral side, and the concentration of a permeated compound was measured by LC-MS/MS under measurement conditions mentioned later. Papp (apparent permeability; cm/sec) was calculated from the determined concentration. Papp was determined according to the expression given below by calculating the slope (dA/dt; nmol/sec) of a straight line drawn between two points 0 minutes and zero amount of the compound in a graph plotted with an assay time (90 min) on the abscissa against the amount of the compound in the solution on the permeated side on the ordinate. As for an assay concentration, the concentration in the compound in the HEPES-containing HBSS medium containing the added compound was measured by UV-HPLC under measurement conditions mentioned later.
Papp (cm/sec)=C0×S×(dA/dt)
C0: assay concentration, S: plate membrane area=0.11 cm^2

Row | Structure (SMILES) | IC50 [1] [nM] | Papp A→B at 90 min, 10 μM [2] [×10⁻⁶ cm/s]
1 | O=C(O)C[C@H](NC(=O)CNC(=O)c1cc(NC2=NCC(F)CN2)c2cn[nH]c2c1)c1cc(Br)cc(OC(F)(F)F)c1 (stereo partly drawn) [Example 32-(b), (3S)-3-(3-bromo-5-(trifluoromethoxy)phenyl)-3-(2-(4-((5-fluoro-1,4,5,6-tetrahydropyrimidin-2-yl)amino)-1H-indazole-6-carboxamido)acetamido)propanoic acid] | < 10 | > 1
2 | O=C(O)C[C@H](NC(=O)CNC(=O)c1cc(NC2=NCC(F)CN2)c2cn[nH]c2c1)c1cc(OC(F)(F)F)ccc1F (stereo partly drawn) [Example 33-(b), (3S)-3-(2-(4-((5-fluoro-1,4,5,6-tetrahydropyrimidin-2-yl)amino)-1H-indazole-6-carboxamido)acetamido)-3-(2-fluoro-5-(trifluoromethoxy)phenyl)propanoic acid] | < 10 | > 1
3 | O=C(O)C[C@H](NC(=O)CNC(=O)c1cc(NC2=NCC(F)CN2)c2cn[nH]c2c1)c1ccc(F)c(OC(F)(F)F)c1 (stereo partly drawn) [Example 34-(b), (3S)-3-(2-(4-((5-fluoro-1,4,5,6-tetrahydropyrimidin-2-yl)amino)-1H-indazole-6-carboxamido)acetamido)-3-(4-fluoro-3-(trifluoromethoxy)phenyl)propanoic acid] | < 10 | > 1
4 | O=C(O)C[C@H](NC(=O)CNC(=O)c1cc(NC2=NCC(F)CN2)c2cn[nH]c2c1)c1cccc(C(F)(F)F)c1 (stereo partly drawn) [Example 35-(b), (3S)-3-(2-(4-((5-fluoro-1,4,5,6-tetrahydropyrimidin-2-yl)amino)-1H-indazole-6-carboxamido)acetamido)-3-(3-(trifluoromethyl)phenyl)propanoic acid] | 10 to 50 | > 1
5 | O=C(O)C[C@H](NC(=O)CNC(=O)c1cc(NC2=NCC(F)CN2)c2cn[nH]c2c1)c1cccc(OC(F)(F)F)c1 (stereo partly drawn) [Example 36-(b), (3S)-3-(2-(4-((5-fluoro-1,4,5,6-tetrahydropyrimidin-2-yl)amino)-1H-indazole-6-carboxamido)acetamido)-3-(3-(trifluoromethoxy)phenyl)propanoic acid] | 10 to 50 | > 1
6 | O=C(O)C[C@H](NC(=O)CNC(=O)c1cc(NC2=NCC(F)CN2)c2cn[nH]c2c1)c1cccc(OC(F)F)c1 (stereo partly drawn) [Example 37-(b), (3S)-3-(3-(difluoromethoxy)phenyl)-3-(2-(4-((5-fluoro-1,4,5,6-tetrahydropyrimidin-2-yl)amino)-1H-indazole-6-carboxamido)acetamido)propanoic acid] | < 10 | > 1
7 | O=C(O)C[C@H](NC(=O)CNC(=O)c1cc(NC2=NCC(F)CN2)c2cn[nH]c2c1)c1cccc(C(F)F)c1 (stereo partly drawn) [Example 38-(b), (3S)-3-(3-(difluoromethyl)phenyl)-3-(2-(4-((5-fluoro-1,4,5,6-tetrahydropyrimidin-2-yl)amino)-1H-indazole-6-carboxamido)acetamido)propanoic acid] | 50 to 100 | > 1
8 | O=C(O)C[C@H](NC(=O)CNC(=O)c1cc(NC2=NCC(F)CN2)c2cn[nH]c2c1)c1cccc(C2CC2)c1 (stereo partly drawn) [Example 39-(b), (3S)-3-(3-cyclopropylphenyl)-3-(2-(4-((5-fluoro-1,4,5,6-tetrahydropyrimidin-2-yl)amino)-1H-indazole-6-carboxamido)acetamido)propanoic acid] | < 10 | > 1
9 | O=C(O)C[C@H](NC(=O)CNC(=O)c1cc(NC2=NCC(F)CN2)c2cn[nH]c2c1)c1cccc(OC2CC2)c1 (stereo partly drawn) [Example 40-(b), (3S)-3-(3-cyclopropoxyphenyl)-3-(2-(4-((5-fluoro-1,4,5,6-tetrahydropyrimidin-2-yl)amino)-1H-indazole-6-carboxamido)acetamido)propanoic acid] | 10 to 50 | > 1
10 | O=C(O)C[C@H](NC(=O)CNC(=O)c1cc(NC2=NCC(F)CN2)c2cn[nH]c2c1)c1cccc(Cl)c1 (stereo partly drawn) [Example 41-(b), (3S)-3-(3-chlorophenyl)-3-(2-(4-((5-fluoro-1,4,5,6-tetrahydropyrimidin-2-yl)amino)-1H-indazole-6-carboxamido)acetamido)propanoic acid] | < 10 | > 1
11 | O=C(O)C[C@H](NC(=O)CNC(=O)c1cc(NC2=NCC(F)CN2)c2cn[nH]c2c1)c1cccc(Br)c1 (stereo partly drawn) [Example 42-(b), (3S)-3-(3-bromophenyl)-3-(2-(4-((5-fluoro-1,4,5,6-tetrahydropyrimidin-2-yl)amino)-1H-indazole-6-carboxamido)acetamido)propanoic acid] | 10 to 50 | > 1
12 | O=C(O)C[C@H](NC(=O)CNC(=O)c1cc(NC2=NCC(F)CN2)c2cn[nH]c2c1)c1cccc(-n2cccn2)c1 (stereo partly drawn) [Example 43-(b), (3S)-3-(3-(1H-pyrazol-1-yl)phenyl)-3-(2-(4-((5-fluoro-1,4,5,6-tetrahydropyrimidin-2-yl)amino)-1H-indazole-6-carboxamido)acetamido)propanoic acid] | < 10 | > 1
13 | Cc1cc(C)n(-c2cccc([C@H](CC(=O)O)NC(=O)CNC(=O)c3cc(NC4=NCC(F)CN4)c4cn[nH]c4c3)c2)n1 (stereo partly drawn) [Example 44-(b), (3S)-3-(3-(3,5-dimethyl-1H-pyrazol-1-yl)phenyl)-3-(2-(4-((5-fluoro-1,4,5,6-tetrahydropyrimidin-2-yl)amino)-1H-indazole-6-carboxamido)acetamido)propanoic acid] | < 10 | 0.5 to 1
14 | O=C(O)C[C@H](NC(=O)CNC(=O)c1cc(NC2=NCC(F)CN2)c2cn[nH]c2c1)c1cccc(N2CCOCC2)c1 (stereo partly drawn) [Example 45-(b), (3S)-3-(2-(4-((5-fluoro-1,4,5,6-tetrahydropyrimidin-2-yl)amino)-1H-indazole-6-carboxamido)acetamido)-3-(3-morpholinophenyl)propanoic acid] | 10 to 50 | 0.5 to 1
15 | O=C(O)C[C@H](NC(=O)CNC(=O)c1cc(NC2=NCC(F)CN2)c2cn[nH]c2c1)c1ccc(OC(F)F)cc1 (stereo partly drawn) [Example 46-(b), (3S)-3-(4-(difluoromethoxy)phenyl)-3-(2-(4-((5-fluoro-1,4,5,6-tetrahydropyrimidin-2-yl)amino)-1H-indazole-6-carboxamido)acetamido)propanoic acid] | 50 to 100 | > 1
16 | O=C(O)C[C@H](NC(=O)CNC(=O)c1cc(NC2=NCC(F)CN2)c2cn[nH]c2c1)c1ccc(C(F)(F)F)cc1 (stereo partly drawn) [Example 47-(b), (3S)-3-(2-(4-((5-fluoro-1,4,5,6-tetrahydropyrimidin-2-yl)amino)-1H-indazole-6-carboxamido)acetamido)-3-(4-(trifluoromethyl)phenyl)propanoic acid] | 10 to 50 | > 1
